Tests used:
Lmaj5F2′dURes = assay: microbe, parasite or virus in culture; type: cell-based, Leishmania major
Method: (§1) Sensitivity assays of Leishmania strains to various drugs using the viability dye resazurin (Alamar Blue) (Sigma-Aldrich) were performed using a protocol adapted from [Räz et al. (1997)], as described ([Al-Salabi et al., 2003], [Gould et al., 2008]). Pentamidine and diminazene were used as non-nucleoside controls and were obtained from Sigma-Aldrich, as were many purines, pyrimidines, and analogs, with the exceptions of 2-thiouridine and 4-thiouridine (TriLink BioTechnologies, San Diego, CA); 5′-deoxyuridine, and 2′-3′-dideoxyuridine (Carbosynth, Compton, UK); 5-fluoro-2′-deoxyuridine (Fluka); and 2-thiouracil (ICN Biomedicals, Cambridge, UK). A preliminary promastigote culture was diluted to a density of 2 × 10^6 cells/ml, of which 100 μl was added to wells of 96-well plates pre-loaded with 100 μl of doubling dilutions of test compounds, resulting in a final density of 1 × 10^6 cells/ml; the dilutions were over 2 rows of the plate (23 concentrations), with the last well containing only medium and serving as the no-drug control. The plates were incubated at 25 °C for 72 h before adding the Alamar Blue dye (20 μl of 12.5 mg resazurin sodium salt (Sigma) in 100 ml phosphate buffered saline (PBS; pH 7.4)). Since Leishmania parasites metabolize the Alamar Blue dye slower than trypanosomes ([Gould et al., 2008]), the cells were incubated with the dye for a further period of 48 h before measuring the fluorescence, using a FLUOstar Optima fluorimeter (BMG Labtech) at wavelengths of 544 nm for excitation and 620 nm for emission. […] Each experiment was performed independently at least 4 times; statistical significance was determined using Student's unpaired t-test.

Lmaj5FURes = assay: microbe, parasite or virus in culture; type: cell-based, Leishmania major
Method: as §1

LmexNT1 = type: cell-based, Leishmania mexicana; conditions: inhibition of 0.25 μM [3H]-uridine uptake in the presence of 1 mM uracil
Outline: (§2)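 Mid-to-late log-phase parasites were washed and held at 10^8 cells ml^−1 in HEPES/bicarbonate buffer with glucose, pH 7.3, then incubated at ambient temperature with radiolabelled permeant, with or without unlabelled substrate or inhibitors. Uptake was stopped with ice-cold excess unlabelled permeant and oil centrifugation, then counted by scintillation; saturation, inhibition and time-course data fitted by regression, in triplicate.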

LmexUU1 = type: cell-based, Leishmania mexicana; conditions: inhibition of [3H]-uracil uptake, 4 min
Outline: as §2

Lmex5FURes [1] = type: cell-based, Leishmania mexicana; conditions: 0.5 μM radiolabel
Outline: as §2

[2] = system: L. mexicana promastigotes WT; assay: Alamar blue drug sensitivity assay, L. mexicana WT; type: cell-based, Leishmania mexicana; conditions: Leishmania mexicana, 72 h, WT promastigotes, 72 h + 48 h with dye; n ≥ 4; read-out: EC50
Method: as §1

[3] = system: L. mexicana promastigotes; assay: metabolomic analysis of treated L. mexicana promastigotes; type: cell-based, Leishmania mexicana; conditions: 100 μM, 8 h
Method: (§3) Metabolomics analysis of the Leishmania promastigotes was undertaken in triplicate, exactly as described ([Ali et al., 2013a]). Briefly, cells were grown to log phase stage, resuspended at 2 × 10^6 cells/ml in 50 ml HOMEM/FBS and incubated 8 h with 100 μM of test compound (standard conditions) before transfer to a 50-ml centrifuge tube for instantaneous cooling (dry ice/ethanol bath, 4 °C) and centrifugation (2500 rpm, 10 min, 4 °C). The pellet was lysed with 200 μl of chloroform/methanol/water (1:3:1 v/v/v) containing mass spectrometry standards, and vigorous mixing (1 h, 4 °C); cell debris was removed by centrifugation and the metabolite extracts were stored in HPLC vials at −80 °C. Control samples were prepared in parallel and included untreated cells, unused growth medium, test compound solution and extraction solvent blanks. The analysis used a hydrophilic interaction liquid chromatography (HILIC-LC) fitted with a zwitterionic ZIC-pHILIC column (Merck Sequant), coupled to high resolution mass spectrometry (MS) using a Thermo Q-Exactive, and metabolomic data outputs were analyzed using the IDEOM application (http://mzmatch.sourceforge.net/ideom.php) with default parameters ([Creek et al., 2012]) exactly as described ([Ali et al., 2013a]). The lower limit of detection was set to 500 intensity units for all reported metabolites, in order to prevent spurious identification of low level signals.
(§4) The mechanism of action of the fluorinated pyrimidines was investigated using a metabolomics approach, where promastigotes of L. mexicana and L. major were incubated for 8 h with 100 μM of either 5-FU, 5F-2′dUrd or 5F-Urd prior to metabolite extraction and mass spectrometric analysis as described ([Ali et al., 2013a], [Alkhaldi et al., 2015]). These conditions were chosen to allow for significant metabolite accumulation while not affecting cell viability or growth rate, which could broadly affect metabolite levels.

[4] = system: L. major promastigotes WT; assay: Alamar blue drug sensitivity assay, L. major WT; type: cell-based, Leishmania major; conditions: Leishmania major, 72 h, WT promastigotes, 72 h + 48 h with dye; n ≥ 4; read-out: EC50
Method: as §1

L. major promastigotes = assay: metabolomic analysis of treated L. major promastigotes; type: cell-based, Leishmania major; conditions: 100 μM, 8 h
Method: as §3, §4

Lmex5F2′dURes = assay: microbe, parasite or virus in culture; type: cell-based, Leishmania mexicana
Method: as §1

Lmex5FURes [5] = assay: microbe, parasite or virus in culture; type: cell-based, Leishmania mexicana
Method: as §1

[6] = n = 3, SEM, untreated: not detected (<500)

Compound: O=c1[nH]cc(F)c(=O)[nH]1 [5-FU, 5-Fluorouracil]
- EC50 (Lmaj5F2′dURes; Leishmania major): 12 ± 1 µM
- RF (Resistance Factor = IC50 (resistant clone)/IC50 (WT)) (Lmaj5F2′dURes; Lmaj5F2′dURes vs L. major WT): 1.3
- EC50 (Lmaj5FURes; Leishmania major): 150 ± 5 µM
- RF (Resistance Factor = IC50 (resistant clone)/IC50 (WT)) (Lmaj5FURes; Lmaj5FURes vs L. major WT): 17
- Ki (LmexNT1): > 5000 µM
- Ki (LmexUU1): 56.3 ± 6.4 µM
- uptake of radiolabel, lower than in WT control cells (Lmex5FURes [1]): 94.5%
- EC50 [2]: 9.3 ± 0.6 µM
- dCMP peak intensity [3, 6]: 5636 ± 3288 arbitrary units
- dUrd peak intensity ([3]; untreated: 304 ± 155): 4166 ± 1560 arbitrary units
- dADP peak intensity ([3]; untreated: 1458): 8948 ± 461^∗∗ arbitrary units
- dAdo peak intensity ([3]; untreated: 2585 ± 811): 6476 ± 2403 arbitrary units
- dAMP peak intensity ([3]; untreated: 10660 ± 2897): 20366 ± 5358 arbitrary units
- dCDP peak intensity ([3]; untreated: not detected): 4803 ± 433^∗∗ arbitrary units
- dCTP peak intensity ([3]; untreated: not detected): 2913 ± 1346 arbitrary units
- EC50 [4]: 8.5 ± 0.6 µM
- dCMP peak intensity (L. major promastigotes; [6]): 5130 arbitrary units
- dUrd peak intensity (L. major promastigotes; untreated: 712 ± 105): 5177 ± 1445 arbitrary units
- dCTP peak intensity (L. major promastigotes; untreated: 995 ± 109): 4541 ± 565 arbitrary units
- dAdo peak intensity (L. major promastigotes; untreated: 2992 ± 173): 6996 ± 2423 arbitrary units
- dAMP peak intensity (L. major promastigotes; untreated: 6192 ± 910): 19379 ± 3774 arbitrary units
- dADP peak intensity (L. major promastigotes; untreated: not detected): not detected
- dCDP peak intensity (L. major promastigotes; untreated: not detected): 6197 ± 1588 arbitrary units
- EC50 (Lmex5F2′dURes; Leishmania mexicana): 1770 ± 301 µM
- RF (Resistance Factor = IC50 (resistant clone)/IC50 (WT)) (Lmex5F2′dURes; Lmex5F2′dURes vs L. mexicana WT): 190
- EC50 (Lmex5FURes [5]; Leishmania mexicana): 1370 ± 123 µM
- RF (Resistance Factor = IC50 (resistant clone)/IC50 (WT)) (Lmex5FURes [5]; Lmex5FURes vs L. mexicana WT): 147
